Assay results published in ChEMBL document CHEMBL4339189, “Dissymmetric pyridyl-substituted 3,5-bis(arylidene)-4-piperidones as anti-hepatoma agents by inhibiting NF-κB pathway activation” (Eur J Med Chem, 2019).
The source made the active and inactive calls. The rule behind the calls is not given here.

Columns and labels:
HepG2 = assay: Cytotoxicity against human HepG2 cells assessed as reduction in cell viability incubated for 24 hrs by MTT assay; format: functional, cell-based; settings: HepG2, 24 h
QGY-7703 = assay: Cytotoxicity against human QGY7703 cells assessed as reduction in cell viability incubated for 24 hrs by MTT assay; format: functional, cell-based; settings: QGY-7703, 24 h
SMMC-7721 = assay: Cytotoxicity against human SMMC7721 cells assessed as reduction in cell viability incubated for 24 hrs by MTT assay; format: functional, cell-based; settings: SMMC-7721, 24 h
[1] = Cytotoxicity against human HHL5 cells assessed as reduction in cell viability incubated for 24 hrs by MTT assay; format: cell-based; settings: HHL-5, 24 h
L02 = assay: Cytotoxicity against human LO2 cells assessed as reduction in cell viability incubated for 24 hrs by MTT assay; format: cell-based; settings: L02, 24 h
RAW264.7 [2] = assay: Cytotoxicity against mouse RAW264.7 cells assessed as reduction in cell viability at 6.0 uM incubated for 24 hrs by MTT assay; format: cell-based; settings: raw264.7, 24 h
RAW264.7 [3] = assay: Antiinflammatory activity in mouse RAW264.7 cells assessed as inhibition of LPS-stimulated TNF-alpha production at 6.0 uM preincubated for 2 hrs followed by LPS stimulaton measured after 22 hrs by ELISA relative to control; format: functional
RAW264.7 [4] = assay: Antiinflammatory activity in mouse RAW264.7 cells assessed as inhibition of LPS-stimulated IL-6 production 6.0 uM preincubated for 2 hrs followed by LPS stimulaton measured after 22 hrs by ELISA relative to control; format: functional

SMILES	IC50 (HepG2) [µM]	IC50 (QGY-7703) [µM]	IC50 (SMMC-7721) [µM]	IC50 [1] [µM]	IC50 (L02) [µM]	Activity (RAW264.7 [2])	inhibition (RAW264.7 [3])	inhibition (RAW264.7 [4])	inhibition at 6 µM (RAW264.7 [3]) [%]	inhibition (INH) (RAW264.7 [4]) [%]
CN1C/C(=C\c2ccncc2)C(=O)/C(=C/c2ccc(C(F)(F)F)cc2)C1	8.2	10.4	17.7	12.2	17.4	Non-Toxic	Active	Active		
CN1C/C(=C\c2ccncc2)C(=O)/C(=C/c2ccc(C#N)cc2)C1	13.9	7.4	18.5	11.5	14	Non-Toxic	Active	Active		
CN1C/C(=C\c2ccc(C(F)(F)F)cc2)C(=O)/C(=C/c2cccnc2)C1	4.79	1.66	4.83	14.2	15.6	Non-Toxic			< 30	<30
CC(=O)Nc1ccc(S(=O)(=O)N2C/C(=C\c3cccnc3)C(=O)/C(=C/c3ccccc3F)C2)cc1	4.56	9.64	10.9	14.2	15.6	Non-Toxic	Active	Active		
O=C1/C(=C/c2cccnc2)CN(S(=O)(=O)c2ccccc2)C/C1=C\c1ccccc1C(F)(F)F	5.37	6.24	10.9	14.3	12.5	Non-Toxic	Active	Active		
CN1C/C(=C\c2ccc(C#N)cc2)C(=O)/C(=C/c2cccnc2)C1	12.7	> 20	13.6	> 20	> 20	Non-Toxic	Active	Active		
O=C1/C(=C/c2cccnc2)CNC/C1=C\c1ccccc1F	21	8.89	> 20	14.6	15.9	Non-Toxic	inactive	inactive		
O=C1/C(=C/c2ccncc2)CNC/C1=C\c1ccccc1F	8.2	14.2	18.4	13.9	14.7	Non-Toxic	inactive	inactive		
CN1C/C(=C\c2ccncc2)C(=O)/C(=C/c2cc([N+](=O)[O-])ccc2F)C1	5.2	5.7	14.7	15.2	17.6	Non-Toxic			< 30	<30
CN1C/C(=C\c2ccncc2)C(=O)/C(=C/c2ccccc2F)C1	4.6	4.9	7	18.5	14.9	Non-Toxic	Active	Active		
O=C1/C(=C/c2cccnc2)CN(S(=O)(=O)c2ccc(Cl)cc2)C/C1=C\c1ccccc1C(F)(F)F	3.62	3.44	4.88	11.1	11.9	Non-Toxic	Active	Active		
O=C1/C(=C/c2cccnc2)CN(S(=O)(=O)c2ccccc2)C/C1=C\c1ccccc1F	8.21	4.8	19.1	14	15.3	Non-Toxic	inactive	inactive		
O=C1/C(=C/c2ccncc2)CN(S(=O)(=O)c2ccccc2)C/C1=C\c1ccccc1F	5.8	8.4	17.5	> 20	15.9	Non-Toxic	inactive	inactive		
O=C1/C(=C/c2ccncc2)CN(S(=O)(=O)c2ccc(Cl)cc2)C/C1=C\c1ccccc1F	5.3	12.5	9.6	11.5	15	Non-Toxic	Active	Active		
CC(=O)Nc1ccc(S(=O)(=O)N2C/C(=C\c3ccncc3)C(=O)/C(=C/c3ccccc3F)C2)cc1	11.7	13.7	13.4	14.2	12.3	Non-Toxic	inactive	inactive		
COc1ccc(/C=C2\CN(C)C/C(=C\c3ccncc3)C2=O)c(OC)c1OC	3.56	8.35	9.08	11.9	15.6	Non-Toxic	Active	Active		
COc1cc(/C=C2\CN(C)C/C(=C\c3ccncc3)C2=O)cc(OC)c1	9.5	8.4	5.81	11.1	13.4	Non-Toxic	Active	Active		
O=C1/C(=C/c2cccnc2)CN(S(=O)(=O)c2ccc([N+](=O)[O-])cc2)C/C1=C\c1ccccc1F	12.8	5.6	> 20	> 20	> 20	Non-Toxic	inactive	inactive		
N#Cc1ccc(S(=O)(=O)N2C/C(=C\c3cccnc3)C(=O)/C(=C/c3ccccc3F)C2)cc1	6.6	15.8	15.4	15.5	> 20	Non-Toxic	inactive	inactive		
O=C1/C(=C/c2cccnc2)CN(S(=O)(=O)c2ccc(F)cc2)C/C1=C\c1ccccc1F	15.6	15.3	9.9	12.6	15.6	Non-Toxic	inactive	inactive		
Cc1ccc(S(=O)(=O)N2C/C(=C\c3ccncc3)C(=O)/C(=C/c3ccccc3F)C2)cc1	9.7	> 20	13.2	13.3	> 20	Non-Toxic	inactive	inactive		
CN1C/C(=C\c2cccnc2)C(=O)/C(=C/c2ccccc2C(F)(F)F)C1	2.55	2.91	3.9	11.1	14.1	Non-Toxic			< 30	<30
O=C1/C(=C/c2cccnc2)CN(S(=O)(=O)c2ccc(Br)cc2)C/C1=C\c1ccccc1C(F)(F)F	2.73	5.51	5.76	15.5	13.3	Non-Toxic	Active	Active		
